Patent US20240115592A1, “PGC-1alpha EXPRESSION PROMOTING AGENT, MUSCLE-BUILDING AGENT AND MITOCHONDRIA ACTIVATING AGENT” (YAMASA CORPORATION, priority 2020, published 2024)

How the values were obtained:
PGC-1α [1] = conditions: neurons; Patent Literature 1; cited from earlier work
mitochondria = conditions: Patent Literature 3; cited from earlier work
Myogenin [2] = test: Myogenin gene expression promoting effect (II) (Example 4); assay type: cell-based, Mouse; conditions: C2C12 cells, 4-6 days, vs control
Method: (§1) Mouse myoblast cell line C2C12 cells (RIKEN BRC, RCB0987) were suspended in growth medium (Dulbecco's modified Eagle's Medium supplemented with 10% FBS, 100 units/ml of penicillin, 100 μg/ml of streptomycin), seeded in 24-well plates, and incubated in a 37° C., 5% CO2 incubator until the cell density reached 70-90%. […] After culturing the cells for 4-6 days while exchanging the medium once every 2 days, the medium was removed, and total RNA was extracted from the cells using the RNeasy Mini kit (QIAGEN).
(§2) A level of Myogenin mRNA expression, a marker gene for myotube cell differentiation, was evaluated by the following method:
Cell culture and treatment with the test substances, total RNA extraction and reverse transcription reaction were performed as in Example 2. Real-time PCR analysis was used to determine mRNA expression levels of Myogenin and β-actin as an internal standard. Statistical analysis was also performed in the same method as that of Example 1.

Myogenin [3] = test: Myogenin gene expression promoting effect (I) (Example 3); assay type: cell-based, Mouse; conditions: C2C12 cells, disodium cytidylate, 6 days, vs control; FIG. 3
Method: as §2
(§3) Mouse myoblast cell line C2C12 cells were suspended in growth medium, seeded in 24-well plates, and incubated in a 37° C., 5% CO2 incubator until the cell density reached 70-90%. The growth medium was removed, and exchanged to a differentiation induction medium containing 1 mM disodium cytidylate or 1 mM disodium cytidylate or containing no cytidylic acid. The cells were cultured for 6 days while exchanging the medium once every 2 days. Total RNA extraction and reverse transcription reaction were performed as in Example 1. Real-time PCR analysis was used to determine mRNA expression levels of Myogenin and β-actin as an internal standard. Statistical analysis was performed in the same method as that of Example 1.

C2C12 cells [4] = test: Myotube cell diameter increasing effect (II) (Example 10); assay type: cell-based, Mouse; conditions: 5-6 days; for myotube cell diameter (photographs): FIG. 13; for myotube cell diameter (ImageJ, average of 50 cells): vs control, FIGS. 14 to 17
Method: Cell culture and addition of test substances were carried out by the same method as that of Example 2. The cells were cultured for 5-6 days while exchanging a differentiation inducing medium containing the test substances once every 2 days, and five positions near the center of the wells were then photographed at magnifications of 100.
Also, using ImageJ image analysis software, the diameters of ten myotube cells per a photograph were measured in order from the myotube cell having the largest diameter, and an average of 50 cells was determined to be the diameter of the myotube cell in each well. Statistical analysis was also performed by the same method as that of Example 2.

Myh7 [5] = test: Myh7 gene expression promoting effect (I) (Example 5); assay type: cell-based, Mouse; conditions: C2C12 cells, 5 mM disodium cytidylate, 4 days, vs control; FIG. 6
Method: (§4) A level of Myh7 mRNA expression encoding a slow-muscle type myosin protein was evaluated using the following method:
as §3, with “5” for “1 mM disodium cytidylate or 1”, “4” for “6”, “days, and the medium was then removed, and the total” for “days. Total”, “Myh7” for “Myogenin”, “Welch's t-test” for “Statistical analysis”, “used for statistical analysis. The threshold for statistical significance was set to 5%.” for “performed in the same method as that of Example 1.”

C2C12 cells [6] = test: Myotube cell diameter increasing effect (I) (Example 9); assay type: cell-based, Mouse; conditions: 6 days; for Average myotube cell diameter: control 53.9
Method: Cell culture and addition of a test substance were carried out by the same method as that of Example 1. The cells were cultured for 6 days while exchanging a differentiation inducing medium containing the test substance once every 2 days, and five positions near the center of the wells were then photographed at magnifications of 100. Using ImageJ image analysis software, the diameters of ten myotube cells per a photograph were measured in order from the myotube cell having the largest diameter, and an average of 50 cells was determined to be the diameter of the myotube cell in each well. Statistical analysis was performed by the same method as that of Example 1. Photographs of representative examples of the respective groups are shown in FIG. 11, and the measured results of the average myotube cell diameter are shown in Table 1 and FIG. 12.

PGC-1α [7] = test: PGC-1α gene expression promoting effect (I), real-time PCR (Example 1); assay type: cell-based, Mouse; conditions: C2C12 cells, 1 mM or 5 mM disodium cytidylate, 6 days, corrected by β-actin, vs control; FIG. 1
Method: Mouse myoblast cell line C2C12 cells (RIKEN BRC, RCB0987) were suspended in growth medium (Dulbecco's modified Eagle's Medium supplemented with 10% FBS, 100 units/ml of penicillin, 100 μg/ml of streptomycin), seeded in 24-well plates, and incubated in a 37° C., 5% CO2 incubator until the cell density reached 70-90%. […] After culturing the cells for 6 days while exchanging the medium once every 2 days, the medium was removed, and total RNA was extracted from the cells using the RNeasy Mini kit (QIAGEN). Unless otherwise stated, each sample n=6 was used for the study, including the following Examples. Using the total RNA as a template, a reverse transcription reaction solution was prepared using the ReverTra Ace® qPCR RT Kit (Toyobo). The reverse transcription reaction solution, GoTaq® qPCR Master Mix (Promega), and a real-time PCR device, Thermal Cycler Dice Real Time System (Takara Bio), were used to measure mRNA expression levels of PGC-1α and β-actin as an internal standard. Analysis was performed by relative quantification, and mRNA expression levels were corrected using the β-actin mRNA expression level as an endogenous control. Dunnett's multiple comparison test was performed for statistical analysis. The threshold of statistical significance was set to 5%.

C2C12 cells [8] = test: Mitochondrial DNA copy number increasing effect (I) (Example 7); assay type: cell-based, Mouse; conditions: 1 mM or 5 mM disodium cytidylate, 6 days, n=3, FIG. 9
Method: Cell culture and addition of test substance were carried out by the same method as that of Example 1. The cells were cultured for 6 days while exchanging a differentiation induction medium containing the test substance once every 2 days, the medium was then removed and total DNA was extracted from the cells using DNeasy Blood & Tissue kit (QIAGEN). Extracted DNA, GoTaq® qPCR Master Mix (Promega) and a real-time PCR device, Thermal Cycler Dice Real Time System (Takara Bio), were used to determine COX2 (Cytochrome c oxidase subunit 2), a gene encoded in the mitochondrial DNA, and PPIA (Cyclophilin A), a gene encoded in […] DNA as an internal standard. The amount of COX2 present relative to the amount of PPIA present was evaluated as the mitochondrial DNA copy number. Statistical analysis was performed by the same method as that of Example 1. This Example was studied with n=3.

C2C12 cells [9] = test: Mitochondrial DNA copy number increasing effect (II) (Example 8); assay type: cell-based, Mouse; conditions: 6 days, n=3, FIG. 10
Method: Cell culture and addition of test substances were carried out in the same method as that of Example 2. The cells were cultured for 6 days, the medium was then removed and total DNA was extracted from the cells using DNeasy Blood & Tissue kit (QIAGEN).
Extracted DNA, GoTaq® qPCR Master Mix (Promega) and a real-time PCR device, Thermal Cycler Dice Real Time System (Takara Bio), were used to determine COX2 (Cytochrome c oxidase subunit 2), a gene encoded in the mitochondrial DNA, and PPIA (Cyclophilin A), a gene encoded in […] DNA, as an internal standard.
The amount of COX2 present relative to the amount of PPIA present was evaluated as the mitochondrial DNA copy number. Statistical analysis was performed by the same method as that of Example 1. This Example was studied with n=3.

PGC-1α [10] = test: PGC-1α gene expression promoting effect (II), real-time PCR (Example 2); assay type: cell-based, Mouse; conditions: C2C12 cells, 4-6 days, corrected by β-actin, vs control; FIG. 2
Method: as §1
Using the total RNA as a template, a reverse transcription reaction solution was prepared using the ReverTra Ace® qPCR RT Kit (Toyobo). The reverse transcription reaction solution, GoTaq® qPCR Master Mix (Promega), and a real-time PCR device, Thermal Cycler Dice Real Time System (Takara Bio), were used to measure the mRNA expression levels of PGC-1α and β-actin as an internal standard. Analysis was performed by relative quantification, and the mRNA expression level was corrected using the β-actin mRNA expression level as an endogenous control. Statistical analysis was performed by t-test or Dunnett's multiple comparison test using the differentiation induction medium treatment group without the test substances as a control. The threshold of statistical significance was set to 5%.

Myh7 [11] = test: Myh7 gene expression promoting effect (II) (Example 6); assay type: cell-based, Mouse; conditions: C2C12 cells, 4-6 days, vs control
Method: as §1, §4
Cell culture and treatment with the test substances, total RNA extraction and reverse transcription reaction were performed as in Example 2. Real-time PCR analysis was used to determine mRNA expression levels of Myh7 and β-actin as an internal standard. Statistical analysis was also performed in the same method as that of Example 1.

Structure (SMILES) | Myogenin mRNA expression level (Myogenin [2]; FIG. 4) | Myogenin mRNA expression level (Myogenin [2]; FIG. 5) | myotube cell diameter (photographs) (C2C12 cells [4]) | myotube cell diameter (ImageJ, average of 50 cells) (C2C12 cells [4]) | mitochondrial DNA copy number (COX2 relative to PPIA) (C2C12 cells [9]) | PGC-1α mRNA expression level (PGC-1α [10]) | Myh7 mRNA expression level (Myh7 [11]; FIG. 7) | also measured
CCc1oc(=O)c(Cc2c(O)c(C)c(CC)oc2=O)c(O)c1C [Helipyrone A] | – | – | – | – | – | – | – | PGC-1α production (PGC-1α [1]): promotes PGC-1α production in neurons
O=C(O)c1cc(C(=O)O)c2c(n1)C(=O)C(=O)c1cc(C(=O)O)[nH]c1-2 [pyrroloquinoline quinone] | – | – | – | – | – | – | – | mitochondria activating effects (mitochondria): exhibits mitochondria activating effects
Nc1ccn([C@@H]2O[C@H](COP(=O)(O)O)[C@@H](O)[C@H]2O)c(=O)n1 [cytidylic acid] | remarkably enhanced | remarkably enhanced | significantly increased | concentration-dependently and remarkably increased | concentration-dependently and remarkably enhanced | concentration-dependently and remarkably enhanced | remarkably enhanced | Myogenin mRNA expression level (Myogenin [3]): concentration-dependently and remarkably enhanced; Myh7 mRNA expression level (Myh7 [5]): markedly enhanced; Average myotube cell diameter (C2C12 cells [6]; 1 mM CMP): 61.1 μm; Average myotube cell diameter (C2C12 cells [6]; 5 mM CMP): 62.5 μm; myotube cell diameter (C2C12 cells [6]; vs control, FIGS. 11 and 12): concentration-dependently and remarkably increased; PGC-1α mRNA expression level (PGC-1α [7]): concentration-dependently and remarkably enhanced; mitochondrial DNA copy number (COX2 relative to PPIA) (C2C12 cells [8]): concentration-dependently and remarkably enhanced
O=c1ccn([C@@H]2O[C@H](COP(=O)(O)O)[C@@H](O)[C@H]2O)c(=O)[nH]1 [uridylic acid] | remarkably enhanced | – | significantly increased | significantly increased | concentration-dependently and remarkably enhanced | concentration-dependently and remarkably enhanced | remarkably enhanced | –
O=c1ccn([C@@H]2O[C@H](CO)[C@@H](O)[C@H]2O)c(=O)[nH]1 [uridine] | – | – | significantly increased | concentration-dependently and remarkably increased | – | – | – | –
Nc1ccn([C@@H]2O[C@H](CO)[C@@H](O)[C@H]2O)c(=O)n1 [cytidine] | – | excellent myotube cell differentiation promoting effect | significantly increased | concentration-dependently and remarkably increased | – | – | – | Myh7 mRNA expression level (Myh7 [11]; FIG. 8): markedly enhanced
